The values that follow come from ChEMBL document CHEMBL1909046, “DrugMatrix in vitro pharmacology data”.

pIC50: −log10 of the molar value. *1 amine or outer side, *2 acyl side, *3 side chain or, on linkers, in order; H or OH if unused. Where a SMILES comes first, the peptide text is derived from it. Bridges are numbered along the chain shown (N, C = ends). Roman numbers before positions name the chains, in order. [ ]: non-standard residue; d: D form. Actinocin(1to9) = Cc1c2oc3c(C)ccc(C(=O)[*:2])c3nc-2c(C(=O)[*:1])c(N)c1=O; NMeV = CN[C@H](C(=O)O)C(C)C; Sar = CNCC(=O)O

The target in data set [1] is T1, Substance-K receptor (Homo sapiens, UniProt P21452). Note: in other assays of this panel Not Active means under 50% inhibition at 10 µM.
T1 sequence (P21452 whole entry): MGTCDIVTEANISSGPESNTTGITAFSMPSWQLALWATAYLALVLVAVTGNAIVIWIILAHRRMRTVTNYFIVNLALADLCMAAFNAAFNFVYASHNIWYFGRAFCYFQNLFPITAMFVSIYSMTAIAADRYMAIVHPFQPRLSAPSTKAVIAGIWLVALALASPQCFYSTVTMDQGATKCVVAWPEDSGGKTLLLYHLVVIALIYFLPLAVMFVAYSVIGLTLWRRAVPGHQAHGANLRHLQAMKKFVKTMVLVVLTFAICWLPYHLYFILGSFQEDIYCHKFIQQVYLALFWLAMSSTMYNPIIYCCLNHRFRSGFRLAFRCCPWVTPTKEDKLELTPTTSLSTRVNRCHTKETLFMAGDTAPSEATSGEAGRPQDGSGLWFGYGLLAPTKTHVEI
Format: cell membranes, CHO, Membrane. Particulars: cho.

Data set [2] can be described thus: DRUGMATRIX: Calcium Channel Type L, Phenylalkylamine radioligand binding (ligand: [3H] (-)-Desmethoxyverapamil (D-888)). In kind it is cell membranes, Rattus norvegicus, Wistar, Brain, Membrane. Particulars: Not Active = under 50% inhibition at 10 µM.
Data set [3] has as its target Receptor tyrosine-protein kinase erbB-2 (Homo sapiens, UniProt P04626). Kind of data set: biochemical. In kind it is cell-based, Insect cells. Particulars: for IC50: insect cells.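 For all read-outs here: inhibition of HER2 kinase enzyme activity, measured with Poly(Glu:Tyr) as the phosphorylation substrate; in other assays of this panel Not Active means under 50% inhibition at 10 µM.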
Data set [4] deals with T2, B2 bradykinin receptor (Homo sapiens, UniProt P30411).
T2 sequence (P30411 whole entry): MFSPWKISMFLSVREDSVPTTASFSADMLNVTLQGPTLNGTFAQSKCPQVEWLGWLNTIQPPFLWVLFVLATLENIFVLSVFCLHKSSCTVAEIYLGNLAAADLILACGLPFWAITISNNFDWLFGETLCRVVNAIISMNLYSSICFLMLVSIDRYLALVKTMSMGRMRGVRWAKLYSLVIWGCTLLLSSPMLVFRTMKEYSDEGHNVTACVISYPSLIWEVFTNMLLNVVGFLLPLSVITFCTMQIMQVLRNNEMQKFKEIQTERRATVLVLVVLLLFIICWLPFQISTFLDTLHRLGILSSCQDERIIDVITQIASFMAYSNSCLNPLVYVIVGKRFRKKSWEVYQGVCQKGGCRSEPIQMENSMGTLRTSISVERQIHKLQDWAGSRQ
Format: cell membranes, Membrane. Particulars: chem-1.

Data set [5] concerns the target T3, 3-hydroxy-3-methylglutaryl-coenzyme A reductase (Homo sapiens, UniProt P04035).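 Note: enzyme inhibition assay of HMG-CoA reductase using radiolabeled [14C]HMG-CoA as substrate; in other assays of this panel Not Active means under 50% inhibition at 10 µM.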
T3 sequence (P04035 whole entry): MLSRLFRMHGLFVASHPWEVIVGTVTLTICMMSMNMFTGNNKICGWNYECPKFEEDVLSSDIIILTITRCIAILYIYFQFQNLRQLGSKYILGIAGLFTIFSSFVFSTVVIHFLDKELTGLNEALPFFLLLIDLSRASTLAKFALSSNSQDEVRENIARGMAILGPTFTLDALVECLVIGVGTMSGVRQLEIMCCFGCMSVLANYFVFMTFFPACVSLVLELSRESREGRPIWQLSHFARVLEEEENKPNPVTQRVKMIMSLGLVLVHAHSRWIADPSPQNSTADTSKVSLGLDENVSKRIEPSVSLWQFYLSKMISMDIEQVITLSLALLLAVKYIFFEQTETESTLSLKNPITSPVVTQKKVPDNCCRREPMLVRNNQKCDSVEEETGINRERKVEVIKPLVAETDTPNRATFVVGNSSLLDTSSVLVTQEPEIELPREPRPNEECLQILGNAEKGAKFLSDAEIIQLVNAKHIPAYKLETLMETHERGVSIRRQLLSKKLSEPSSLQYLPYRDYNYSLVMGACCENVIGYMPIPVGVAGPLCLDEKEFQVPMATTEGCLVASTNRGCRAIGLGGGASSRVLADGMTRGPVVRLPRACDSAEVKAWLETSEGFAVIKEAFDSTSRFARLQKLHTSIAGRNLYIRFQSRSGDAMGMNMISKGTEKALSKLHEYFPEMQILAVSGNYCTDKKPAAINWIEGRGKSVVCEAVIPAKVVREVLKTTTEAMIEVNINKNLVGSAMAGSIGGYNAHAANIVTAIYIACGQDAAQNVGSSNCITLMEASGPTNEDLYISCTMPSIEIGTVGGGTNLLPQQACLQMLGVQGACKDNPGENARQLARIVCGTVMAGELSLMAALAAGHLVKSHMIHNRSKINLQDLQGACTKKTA
On the set-up: species or system Escherichia coli.

The target of data set [6] is T4, Cytochrome P450 1A2 (Homo sapiens, UniProt P05177). Note: in other assays of this panel Not Active means under 50% inhibition at 10 µM.
T4 sequence (P05177 whole entry): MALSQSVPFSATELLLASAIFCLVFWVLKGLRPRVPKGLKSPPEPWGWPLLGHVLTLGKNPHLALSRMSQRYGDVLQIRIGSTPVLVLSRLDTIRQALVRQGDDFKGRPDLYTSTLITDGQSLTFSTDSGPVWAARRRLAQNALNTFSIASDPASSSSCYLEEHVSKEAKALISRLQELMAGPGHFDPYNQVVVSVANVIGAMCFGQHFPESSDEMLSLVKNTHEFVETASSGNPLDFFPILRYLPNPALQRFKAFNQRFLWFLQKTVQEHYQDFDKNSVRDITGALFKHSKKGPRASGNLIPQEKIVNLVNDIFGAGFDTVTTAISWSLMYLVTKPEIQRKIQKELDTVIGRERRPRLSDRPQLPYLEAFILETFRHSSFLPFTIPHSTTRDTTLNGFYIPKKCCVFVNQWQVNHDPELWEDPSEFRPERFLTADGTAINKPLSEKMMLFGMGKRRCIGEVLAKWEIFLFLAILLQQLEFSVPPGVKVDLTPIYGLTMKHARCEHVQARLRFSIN
As to conditions: bti-tn-5b1-4.

Sequence of Receptor tyrosine-protein kinase erbB-2 (P04626 whole entry): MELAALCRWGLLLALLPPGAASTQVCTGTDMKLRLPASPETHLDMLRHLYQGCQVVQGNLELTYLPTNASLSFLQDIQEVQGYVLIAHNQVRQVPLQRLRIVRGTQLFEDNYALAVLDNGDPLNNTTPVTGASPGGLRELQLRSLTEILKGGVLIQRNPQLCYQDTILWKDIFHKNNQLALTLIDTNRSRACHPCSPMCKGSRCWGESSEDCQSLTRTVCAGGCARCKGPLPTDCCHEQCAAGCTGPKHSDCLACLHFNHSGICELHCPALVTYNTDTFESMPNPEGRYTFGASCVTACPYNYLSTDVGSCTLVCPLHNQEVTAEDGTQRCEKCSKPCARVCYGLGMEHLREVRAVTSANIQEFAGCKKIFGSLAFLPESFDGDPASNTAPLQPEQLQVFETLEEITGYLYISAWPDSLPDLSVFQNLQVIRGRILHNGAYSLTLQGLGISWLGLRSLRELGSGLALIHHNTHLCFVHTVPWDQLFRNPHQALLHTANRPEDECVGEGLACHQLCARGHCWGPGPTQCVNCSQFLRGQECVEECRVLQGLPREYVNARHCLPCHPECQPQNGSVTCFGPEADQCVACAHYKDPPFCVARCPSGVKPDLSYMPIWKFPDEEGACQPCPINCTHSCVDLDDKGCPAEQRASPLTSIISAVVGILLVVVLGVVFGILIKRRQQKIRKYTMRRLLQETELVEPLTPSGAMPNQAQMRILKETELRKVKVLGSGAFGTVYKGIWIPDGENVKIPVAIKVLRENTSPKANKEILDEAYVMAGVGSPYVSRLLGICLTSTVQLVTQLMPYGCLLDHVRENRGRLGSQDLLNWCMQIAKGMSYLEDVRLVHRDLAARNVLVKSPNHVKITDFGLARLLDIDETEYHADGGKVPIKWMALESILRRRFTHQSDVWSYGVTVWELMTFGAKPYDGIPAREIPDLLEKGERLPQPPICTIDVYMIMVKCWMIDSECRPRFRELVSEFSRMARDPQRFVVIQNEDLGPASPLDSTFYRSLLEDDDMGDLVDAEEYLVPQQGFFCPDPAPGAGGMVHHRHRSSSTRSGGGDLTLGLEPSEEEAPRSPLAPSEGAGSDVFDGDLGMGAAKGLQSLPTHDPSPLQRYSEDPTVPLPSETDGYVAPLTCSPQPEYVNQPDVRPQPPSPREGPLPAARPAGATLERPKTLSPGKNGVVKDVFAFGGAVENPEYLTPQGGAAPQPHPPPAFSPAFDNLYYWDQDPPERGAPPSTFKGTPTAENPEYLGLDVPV

As for `C[C@H](CCC(=O)O)[C@H]1CC[C@H]2[C@@H]3[C@H](O)C[C@@H]4C[C@H](O)CC[C@]4(C)[C@H]3C[C@H](O)[C@]12C` [CHOLIC ACID], the IC50 entry in data set [1], in data set [2], in data set [3], in data set [4], in data set [5] and in data set [6] was “Not Active” throughout. The Ki result in data set [2] and in data set [6] was “Not Active” throughout.

Turning to `Cc1cc(C2CCCCC2)n(O)c(=O)c1` [CICLOPIROX], the IC50 result in data set [1], in data set [2], in data set [3], in data set [4], in data set [5] and in data set [6] was “Not Active” throughout. Further, the Ki result in data set [2] and in data set [6] was “Not Active” in each case.

For the molecule `CC1=C2C(=CO[C@H](C)[C@H]2C)C(O)=C(C(=O)O)C1=O` [CITRININ], the IC50 result in data set [1], in data set [2], in data set [3], in data set [4], in data set [5] and in data set [6] was “Not Active” in each case. Further, the Ki result in data set [2] and in data set [6] was “Not Active” each time.

Consider `CC(C)(C)NCC(O)c1cc(Cl)c(N)c(Cl)c1` (configuration not stated) [CLENBUTEROL], for which the IC50 entry in data set [1], in data set [2], in data set [3], in data set [4], in data set [5] and in data set [6] was “Not Active” each time. Further, the Ki result in data set [2] and in data set [6] was “Not Active” in each case.

For `Clc1cccc(Cl)c1NC1=NCCN1` [CLONIDINE], the IC50 entry in data set [1], in data set [2], in data set [3], in data set [4], in data set [5] and in data set [6] was “Not Active” in each case. For the same molecule, the Ki entry in data set [2] and in data set [6] was “Not Active” each time.

With `Cc1cc(C(C#N)c2ccc(Cl)cc2)c(Cl)cc1NC(=O)c1cc(I)cc(I)c1O` (configuration not stated) [CLOSANTEL], the IC50 result in data set [1], in data set [2], in data set [4], in data set [5] and in data set [6] was “Not Active” in each case. The Ki entry in data set [2] and in data set [6] was “Not Active” each time. In addition, the pIC50 in data set [3] (read-out: IC50) is 5.61.

In the case of `Cc1onc(-c2ccccc2Cl)c1C(=O)N[C@@H]1C(=O)N2[C@@H]1SC(C)(C)[C@@H]2C(=O)O` [CLOXACILLIN], the IC50 entry in data set [1], in data set [2], in data set [3], in data set [4], in data set [5] and in data set [6] was “Not Active” throughout. Besides, the Ki entry in data set [2] and in data set [6] was “Not Active” throughout.

Take `CC1CC(OC(=O)C(O)c2ccccc2)CC(C)(C)C1` (configuration not stated) [CYCLANDELATE]: the IC50 result in data set [1], in data set [2], in data set [3], in data set [4], in data set [5] and in data set [6] was “Not Active” in each case. In addition, the Ki result in data set [2] and in data set [6] was “Not Active” throughout.

As to `Cc1c2oc3c(C)ccc(C(=O)N[C@@H]4C(=O)N[C@H](C(C)C)C(=O)N5CCC[C@H]5C(=O)N(C)CC(=O)N(C)[C@@H](C(C)C)C(=O)O[C@@H]4C)c3nc-2c(C(=O)N[C@@H]2C(=O)N[C@H](C(C)C)C(=O)N3CCC[C@H]3C(=O)N(C)CC(=O)N(C)[C@@H](C(C)C)C(=O)O[C@@H]2C)c(N)c1=O` [DACTINOMYCIN] (I: T[dV]P[Sar][NMeV] / II: T[dV]P[Sar][NMeV]; ester I:1-I:C, II:1-II:C; linker I:N-II:N via Actinocin(1to9)), the IC50 result in data set [1], in data set [2], in data set [3], in data set [4], in data set [5] and in data set [6] was “Not Active” in each case. Moreover, the Ki result in data set [2] and in data set [6] was “Not Active” throughout.

As to `Cc1c(O)c(=O)ccn1C` [DEFERIPRONE], the IC50 entry in data set [1], in data set [2], in data set [3], in data set [4], in data set [5] and in data set [6] was “Not Active” throughout. Also, the Ki entry in data set [2] and in data set [6] was “Not Active” throughout.

Consider `CNCCCN1c2ccccc2CCc2ccccc21` [DESIPRAMINE], for which the IC50 entry in data set [1], in data set [2], in data set [3], in data set [4], in data set [5] and in data set [6] was “Not Active” each time. Also, the Ki entry in data set [2] and in data set [6] was “Not Active” each time.

For `O=c1oc2ccccc2c(O)c1Cc1c(O)c2ccccc2oc1=O` [DICUMAROL], the IC50 entry in data set [1], in data set [2], in data set [3], in data set [4], in data set [5] and in data set [6] was “Not Active” throughout. Moreover, the Ki result in data set [2] and in data set [6] was “Not Active” in each case.

With `C[C@H]1O[C@@H](O[C@H]2[C@@H](O)C[C@H](O[C@H]3[C@@H](O)C[C@H](O[C@H]4CC[C@@]5(C)[C@H](CC[C@@H]6[C@@H]5C[C@@H](O)[C@]5(C)[C@@H](C7=CC(=O)OC7)CC[C@]65O)C4)O[C@@H]3C)O[C@@H]2C)C[C@H](O)[C@@H]1O` [DIGOXIN], the IC50 result in data set [1], in data set [2], in data set [3], in data set [4], in data set [5] and in data set [6] was “Not Active” in each case. Moreover, the Ki entry in data set [2] and in data set [6] was “Not Active” throughout.

Consider `CC(C)[C@@]1(NC(=O)[C@@H]2C[C@@H]3c4cccc5[nH]cc(c45)C[C@H]3N(C)C2)O[C@@]2(O)[C@@H]3CCCN3C(=O)[C@H](Cc3ccccc3)N2C1=O.CS(=O)(=O)O` [DIHYDROERGOCRISTINE MESYLATE], for which the IC50 entry in data set [1], in data set [2], in data set [3], in data set [4], in data set [5] and in data set [6] was “Not Active” each time. Further, the Ki result in data set [2] and in data set [6] was “Not Active” each time.
